Source: ChEMBL document CHEMBL1201862, “PubChem BioAssay data set” (2004)
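Dose response: 5 concentrations. Exposure: 48 h. Format: 96-well plates. Endpoint: linear interpolation; highest concentration if not reached. At the GI50, growth is halved.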 Calls of active or inactive are those of the source. Rule as the data show it: active = GI50 up to about 1.1 µM and inactive = higher.

Experiments:
Experiment in all cases: NCI tumour cell line growth inhibition, 48 h
[1] = tested on: HT-29
[2] = tested on: DU-145
[3] = tested on: SW-620
[4] = tested on: NCI-H460
[5] = tested on: HL-60
[6] = tested on: CCRF-CEM
[7] = tested on: A498
[8] = tested on: KM12
[9] = tested on: HOP-92
[10] = tested on: OVCAR-5
[11] = tested on: MDA-N
[12] = tested on: M14
[13] = tested on: LOX IMVI
[14] = tested on: MDA-MB-231
[15] = tested on: RPMI-8226
[16] = tested on: SN12C
[17] = tested on: U-251
[18] = tested on: UO-31
[19] = tested on: SK-MEL-28
[20] = tested on: SF-539
[21] = tested on: BT-549
[22] = tested on: COLO 205
[23] = tested on: PC-3
[24] = tested on: CAKI-1
[25] = tested on: SR
[26] = tested on: UACC-257
[27] = tested on: T47D
[28] = tested on: Malme-3M
[29] = tested on: SK-MEL-2
[30] = tested on: MOLT-4
[31] = tested on: RXF 393
[32] = tested on: SNB-75
[33] = tested on: MCF7
[34] = tested on: K562
[35] = tested on: NCI/ADR-RES
[36] = tested on: MDA-MB-435
[37] = tested on: HOP-62
[38] = tested on: ACHN
[39] = tested on: SNB-19
[40] = tested on: A549
[41] = tested on: NCI-H522
[42] = tested on: SK-MEL-5
[43] = tested on: HCT-116
[44] = tested on: EKVX
[45] = tested on: OVCAR-8
[46] = tested on: NCI-H23
[47] = tested on: SK-OV-3
[48] = tested on: HCT-15
[49] = tested on: UACC-62
[50] = tested on: SF-295
[51] = tested on: SF-268
[52] = tested on: OVCAR-3
[53] = tested on: OVCAR-4
[54] = tested on: HCC 2998
[55] = tested on: TK-10
[56] = tested on: Hs-578T
[57] = tested on: NCI-H226
[58] = tested on: IGROV-1
[59] = tested on: 786-0

Measured: GI50

CC(C)(C)OC(=O)NC(Cc1ccc(OCc2ccccc2)cc1)C(=O)NC(COCc1ccccc1)C(=O)Oc1c(Cl)c(Cl)c(Cl)c(Cl)c1Cl (stereo not given)
17.8 µM: [48]
inactive: [1] 25.6 µM | [2] 14.8 µM | [3] 25.6 µM | [4] 17.6 µM | [5] 59.8 µM | [6] 55.2 µM | [7] 23.1 µM | [8] 19.3 µM | [9] 13.8 µM | [10] 25.5 µM | [11] 26.4 µM | [12] 20.8 µM | [13] 23.6 µM | [14] 13.5 µM | [15] 37.7 µM | [16] 23.3 µM | [17] 18 µM | [18] 17 µM | [19] 25.1 µM | [20] 15.5 µM | [21] 20 µM | [22] 18.7 µM | [23] 19.5 µM | [24] 19.9 µM | [25] 44.9 µM | [26] 27.6 µM | [27] 22.8 µM | [28] 25.1 µM | [29] 19 µM | [30] 37.5 µM | [31] 24.8 µM | [32] 29.6 µM | [33] 22.4 µM | [34] > 100 µM | [35] 21.2 µM | [36] 21.7 µM | [37] 16.4 µM | [38] 24.4 µM | [39] 29.3 µM | [40] 27.1 µM | [41] 22.2 µM | [42] 17.3 µM | [43] 16.4 µM | [44] 23.1 µM | [45] 21.5 µM | [46] 17.2 µM | [47] 17.1 µM | [49] 16.2 µM | [50] 19.2 µM | [51] 24.4 µM | [52] 14.9 µM | [53] 26.5 µM | [54] 20.1 µM | [55] 29.8 µM | [56] 17.7 µM | [57] 21.4 µM | [58] 15.8 µM

Cc1cc(C)c2c(c1)CC1(Cc3c(ccc(C)c3C)C1=O)C2=O (stereo not given)
> 100 µM: [48]
inactive: [1] > 100 µM | [2] > 100 µM | [3] > 100 µM | [4] > 100 µM | [5] > 100 µM | [59] > 100 µM | [6] > 100 µM | [7] > 100 µM | [8] > 100 µM | [9] > 100 µM | [10] > 100 µM | [11] > 100 µM | [12] > 100 µM | [14] > 100 µM | [15] > 100 µM | [16] > 100 µM | [17] > 100 µM | [18] > 100 µM | [19] > 100 µM | [20] > 100 µM | [21] > 100 µM | [22] > 10 µM | [23] > 100 µM | [24] > 100 µM | [25] > 100 µM | [26] > 100 µM | [27] > 100 µM | [28] > 100 µM | [29] > 100 µM | [30] > 100 µM | [31] > 100 µM | [32] > 100 µM | [33] > 100 µM | [34] > 100 µM | [35] > 100 µM | [36] > 100 µM | [38] > 100 µM | [39] > 100 µM | [40] > 100 µM | [41] > 100 µM | [42] > 100 µM | [43] > 100 µM | [44] > 100 µM | [45] > 100 µM | [46] > 100 µM | [47] > 100 µM | [49] > 100 µM | [50] > 100 µM | [51] > 100 µM | [52] > 100 µM | [53] > 100 µM | [54] > 100 µM | [55] > 100 µM | [56] > 100 µM | [57] > 100 µM | [58] > 100 µM
